Assays:
Experiment in all cases: relative viability (nuclei count vs DMSO), 5 days (fraction); higher = more cells survive
Cabozantinib = compound: COc1cc2nccc(Oc3ccc(NC(=O)C4(C(=O)Nc5ccc(F)cc5)CC4)cc3)c2cc1OC [Cabozantinib]
Method in brief: (§1)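 Hoechst staining, done together with fixation and permeabilisation, marked nuclei for 4× imaging and MetaXpress counting. This followed 5 days without medium change after lung cancer cell lines, kept overnight at 37 °C in 1536-well plates, were pinned with five library-drug doses (not always all listed) spaced by √10 on vehicle-anchored plates. Viability is the ratio of treated-well to vehicle-well nuclei, expressed as a median across plates. Plates passed only at control CV below 25% with at least one doubling.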

Kobe2602 = compound: C1=CC(=CC=C1NC(=S)NNC2=C(C=C(C=C2[N+](=O)[O-])C(F)(F)F)[N+](=O)[O-])F [Kobe2602]
Method in brief: as §1

Zosuquidar = compound: O[C@@H](COc1cccc2ncccc12)CN1CCN([C@@H]2c3ccccc3[C@@H]3[C@H](c4ccccc42)C3(F)F)CC1 [Zosuquidar]
Method in brief: as §1

Row | Cell Line | relative viability (Cabozantinib; 0.02 µM) | relative viability (Cabozantinib; 0.06325 µM) | relative viability (Cabozantinib; 0.2 µM) | relative viability (Cabozantinib; 0.6325 µM) | relative viability (Cabozantinib; 2 µM) | relative viability (Kobe2602; 0.2 µM) | relative viability (Kobe2602; 0.6325 µM) | relative viability (Kobe2602; 2 µM) | relative viability (Kobe2602; 6.325 µM) | relative viability (Kobe2602; 20 µM) | relative viability (Zosuquidar; 0.01 µM) | relative viability (Zosuquidar; 0.03162 µM) | relative viability (Zosuquidar; 0.1 µM) | relative viability (Zosuquidar; 0.3162 µM) | relative viability (Zosuquidar; 1 µM)
1 | LC-2-ad | 0.838 | 1.13 | 0.946 | 0.878 | 0.704 | 0.999 | 1.02 | 0.954 | 0.951 | 1.08 | 0.919 | 1.07 | 0.923 | 1.13 | 0.995
2 | LCLC-97TM1 | – | 1.02 | 1.06 | 0.999 | 1.02 | 1.07 | 1.07 | 0.928 | 0.798 | 1 | 0.9 | 1.12 | – | 1.02 | 0.939
3 | LCLC-103H | 0.824 | 1.16 | 1.02 | 1.05 | 0.953 | 1.01 | 1.01 | 0.987 | 0.992 | 0.981 | 0.911 | 0.973 | 0.752 | 1.02 | 1.06
4 | LK-2 | 0.764 | 1.26 | 0.924 | 0.927 | 0.926 | 1.14 | 1.12 | 0.974 | 0.887 | 1.19 | 0.997 | 1.03 | 0.934 | 1.11 | 1.01
5 | LOU-NH91 | 0.919 | 1.13 | 0.885 | 0.926 | 0.975 | 0.993 | 1.05 | 0.912 | 0.999 | 1.04 | 0.888 | 0.953 | 0.775 | 1.01 | 0.922
6 | LU99A | 0.889 | 1.03 | 0.979 | 0.901 | 0.822 | 0.908 | 0.998 | 0.948 | 0.939 | 1.01 | 0.984 | 0.833 | 0.971 | 1.04 | 0.912
7 | LXF-289 | 1.04 | 1.02 | 0.974 | 1.05 | 1.02 | 1.03 | 1.04 | 0.99 | 0.985 | 0.991 | 1.01 | 1.02 | 1.01 | 1.02 | 0.97
8 | NCI-H23 | – | 1.33 | 0.99 | 0.925 | 0.874 | 0.97 | 1.26 | 0.944 | 1.12 | 1.1 | 0.99 | 0.992 | 0.873 | 1.18 | 0.976
9 | NCI-H322M | 0.874 | 1.17 | 0.694 | 0.983 | 0.952 | 0.97 | 1.07 | 1.03 | 0.984 | 1.08 | 0.907 | 1.07 | 0.667 | 0.924 | 0.916
10 | NCI-H358 | 0.936 | 1.02 | 0.833 | 0.981 | 0.813 | 0.993 | 1.03 | 0.862 | 0.828 | 0.97 | 0.959 | 0.914 | 0.871 | 0.878 | 0.937
11 | NCI-H441 | 0.738 | 1.23 | 0.96 | 0.793 | 0.879 | 0.973 | 1.2 | 0.917 | 1.04 | 1.16 | 1.14 | 0.881 | 0.829 | 1.06 | 1.17
12 | NCI-H460 | 1.05 | 1.06 | 1.05 | 0.976 | 1.03 | 1.03 | 0.955 | 0.986 | 1.04 | 0.963 | 0.993 | 0.964 | 0.969 | 1.02 | 0.974
13 | NCI-H520 | 1.05 | 0.959 | 0.962 | 0.953 | 0.951 | 1.01 | 1.09 | 0.966 | 0.936 | 0.957 | 0.986 | 1.04 | – | 1.08 | 1.05
14 | NCI-H522 | 0.863 | 0.98 | 0.897 | 0.98 | 1.15 | 1.08 | 1.11 | 0.997 | 0.895 | 0.979 | 1.01 | 0.809 | 0.955 | 1.06 | 0.907
15 | NCI-H596 | 1.1 | 1.17 | 1.06 | 1.01 | 0.983 | 1.02 | 0.927 | 1.01 | 0.92 | 1.11 | 1.06 | 0.806 | 1.04 | 1.14 | 1.04
16 | NCI-H647 | 0.994 | 1.14 | 0.986 | 0.92 | 0.881 | 0.938 | 1.09 | 0.936 | 0.91 | 0.948 | 0.908 | 0.951 | 0.918 | 1.13 | 0.884
17 | NCI-H650 | 0.745 | 0.966 | 1.12 | 0.86 | 0.899 | 0.913 | 1.11 | 0.885 | 0.986 | 0.905 | 1.02 | 0.836 | 0.807 | 1.12 | 0.851
18 | NCI-H661 | 0.986 | 1.03 | 1.01 | 1.02 | 1.06 | 1 | 0.952 | 0.983 | 0.991 | 1.02 | 0.945 | 0.976 | 0.91 | 1.03 | 0.982
19 | NCI-H727 | 0.852 | 1.05 | 0.808 | 0.912 | 0.961 | 1.07 | 0.952 | 0.878 | 0.85 | 0.938 | 0.971 | 1.06 | 0.8 | 1.13 | 1.01
20 | NCI-H838 | 0.93 | 1 | 0.966 | 0.891 | 0.854 | 0.932 | 1.03 | 0.937 | 0.955 | 0.96 | 0.972 | 0.836 | 0.9 | 1.04 | 1.01
21 | NCI-H1299 | 1.03 | 1.08 | 1.03 | 1.05 | 1.08 | 0.977 | 1.06 | 1.02 | 1.04 | 0.994 | 1.02 | 0.989 | 1.04 | 1.01 | 1
22 | NCI-H1355 | 0.954 | 1.11 | 0.977 | 0.96 | 0.961 | 0.914 | 1.01 | 0.911 | 0.965 | 0.959 | 0.99 | 0.967 | 0.843 | 1.06 | 0.973
23 | NCI-H1395 | 0.797 | 1.23 | 1.01 | 0.938 | 0.815 | 0.978 | 1.22 | 0.893 | 1.06 | 0.976 | 0.914 | 0.869 | 0.717 | 1.18 | 0.891
